Tests used:
[1] = target: human p38α (Homo sapiens, UniProt Q16539); assay: Purified and activated recombinant human p38α assay (HTRF); format: biochemical; conditions: 1 nM p38α, 50 μM ATP, 100 nM GST-ATF2-Avitag, 1 hour at RT, read-out: p38a IC50 IC50
Method: Purified and Activated Recombinant Human p38α Assay
Kinase Reaction Buffer: Kinase reaction buffer for p38α HTRF assays consists of 50 mM Tris-pH 7.5, 5 mM MgCl2, 0.1 mg/mL BSA, 100 μM Na3VO4 and 0.5 mM DTT.
HTRF Detection Buffer: HTRF detection buffer contains 100 mM HEPES-pH 7.5, 100 mM NaCl, 0.1% BSA, 0.05% Tween-20, and 10 mM EDTA.
Serial Dilution of Compounds: Compounds were dissolved in 100% DMSO and serially diluted (3 fold, 10 point) in a polypropylene 96-well microtiter plate (drug plate). The final starting concentration of compounds in the p38α enzymatic assays was 1 μM. Columns 6 and 12 (HI controls and LO controls respectively) in the drug plate were reserved as controls and contained only DMSO. Kinase Reaction: The p38α kinase reactions were carried out in a polypropylene 96-well black round bottom assay plate in total volume of 30 μL kinase reaction buffer. Appropriate concentration of purified and activated enzyme (recombinant human) was mixed with indicated concentration of ATP and 100 nM GST-ATF2-Avitag, in the presence or absence (HI control) of Compound. See table below for actual concentrations. In the absence of substrate, the background was measured as LO control. The reaction was allowed to incubate for 1 hour at RT. Assay Reagent Concentrations: The final reagent concentrations were 1 nM p38α and 50 μM ATP. […] After 60 minutes incubation at room temperature, the assay plate was read in a Discovery Plate Reader. The wells were excited with coherent 320 nm light and the ratio of delayed ([…] post excitation) emissions at […] (native europium fluorescence) and 665 nm (europium fluorescence transferred to allophycocyanin—an index of substrate phosphorylation) was determined (Park et al, 1999). Data Analysis: The proportion of substrate phosphorylated in the kinase reaction in the presence of compound compared with that phosphorylated in the presence of DMSO vehicle alone (HI control) was calculated using the formula: % control (POC)=(compound−average LO)/(average HI−average LO)*100. Data (consisting of POC and inhibitor concentration in μM) was fitted to a 4-parameter equation (y=A+((B−A)/(1+((x/C)^D))), where A is the minimum y (POC) value, B is the maximum y (POC), C is the x (compound concentration) at the point of inflection and D is the slope factor, using a Levenburg-Marquardt non-linear regression algorithm.
The inhibition constant (Ki) of the inhibitor was estimated from the IC50 (compound concentration at the point of inflection C) using the Cheng-Prussof equation: Ki=IC50/(1+S/Km), where S is the ATP substrate concentration, and Km is the Michaelis constant for ATP as determined experimentally. All results were expressed as the mean±the standard error of the mean. Data acquisition and non-linear regression algorithms were performed using Activity Base v5.2 and XL-fit software v4.1 respectively. All data was archived using Activity Base v5.2 software.

[2] = tested on: TNF-α induced IL-8 production in human whole blood; assay: Inhibition of TNF-α induced IL-8 in 50% human whole blood; format: cell-based; conditions: 1 nM TNF-α, secreted IL-8, 16-18 hours, read-out: WB TNF/IL8 IC50
Method: Inhibition of TNF-α Induced IL-8 in 50% Human Whole Blood
Test compounds were evaluated in vitro for the ability to inhibit the production of secreted IL-8 by whole blood activated with TNF-α. Fresh human whole blood was obtained from healthy, non-medicated volunteers in sodium heparin tubes.
Compound Dilution—Assay Procedure
Test compounds are serially diluted 1:3 in DMSO and then diluted 1:250 into R10 (RPMI 1640, 10% human serum AB, 1× pen/strep/glutamine) to the 4× working concentration to be used in the assay. 100 ul heparinized whole blood is plated into wells of 96 well flat bottom plates. 50 ul of either 4× compound or DMSO control (Final DMSO concentration is 0.1%) are added to the appropriate wells. Plates are incubated for 1 hour at 37 degrees Celsius. 50 ul of 4×TNF-α (4 nM TNF-α, for a final concentration of 1 nM) or control (media alone) is added to the appropriate wells (Total volume=200 ul). Plates are incubated overnight (16-18 hours). 100 ul of supernatant is collected and stored in 96-well round bottom polypropylene plates at −80 degrees Celsius or assayed immediately for IL-8.
Cytokines are measured on antibody (Ab) sandwich ECL based 96-well detection plates. 20 ul of supernatant are added to plate and plate is sealed and shaken at RT for 1 hour. 130 ul of detection Ab cocktail is added and plates are sealed and shaken for 1 hour in the dark at RT. Plates are read on MSD Sector HTS instrument. Data are analyzed and IC50 values generated using Activity Base and Xl-fit programs.

human p38α, sequence (Q16539 whole entry): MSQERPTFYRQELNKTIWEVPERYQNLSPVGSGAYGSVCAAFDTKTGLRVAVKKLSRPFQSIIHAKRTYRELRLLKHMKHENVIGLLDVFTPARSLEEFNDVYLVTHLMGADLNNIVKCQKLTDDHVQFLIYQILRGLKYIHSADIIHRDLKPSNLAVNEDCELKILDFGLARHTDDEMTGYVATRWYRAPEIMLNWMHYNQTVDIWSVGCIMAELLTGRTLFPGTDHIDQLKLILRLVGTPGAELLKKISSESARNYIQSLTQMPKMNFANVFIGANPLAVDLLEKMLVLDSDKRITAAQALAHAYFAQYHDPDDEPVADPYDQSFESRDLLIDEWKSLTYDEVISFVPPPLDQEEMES

Row | Molecule | IC50 [1] [nM] | IC50 [2] [nM]
1 | Cc1cc(F)ccc1-c1nncc2cc(Nc3ccccn3)ccc12 [Example 16, 1-(4-fluoro-2-methylphenyl)-N-2-pyridinyl-6-phthalazinamine] | 1.6 | 16.1
2 | Cc1ccc(F)cc1Nc1ccc2c(-c3ccc(F)cc3C)nncc2c1 [Example 3, 1-(4-Fluoro-2-methylphenyl)-N-(5-fluoro-2-methylphenyl)phthalazin-6-amine] | 0.5 | 3.5
3 | Cc1noc(C)c1-c1nncc2cc(Nc3ccc(F)cc3)ccc12 [Example 30, 1-(3,5-dimethyl-4-isoxazolyl)-N-(4-fluorophenyl)-6-phthalazinamine] | 0.9 | 4.9
4 | Cc1cccc(Nc2ccc3c(-c4ccc(F)cc4C)nncc3c2)n1 [Example 15, 1-(4-fluoro-2-methylphenyl)-N-(6-methyl-2-pyridinyl)-6-phthalazinamine] | 1.5 | 11.4
5 | Cc1cc(S(C)(=O)=O)c(F)cc1-c1nncc2cc(Nc3ccc(F)cc3)ccc12 [Example 24, 1-(5-fluoro-2-methyl-4-(methylsulfonyl)phenyl)-N-(4-fluorophenyl)-6-phthalazinamine] | 0.7 | 4.7
6 | Cc1ncccc1-c1nncc2cc(Nc3ccc(F)cc3)ccc12 [Example 29, N-(4-fluorophenyl)-1-(2-methyl-3-pyridinyl)-6-phthalazinamine] | 0.7 | 1.8
7 | CC(c1nncc2cc(Nc3ccc(F)cc3)ccc12)C(F)(F)F (stereo not shown) [Example 5, N-(4-Fluorophenyl)-1-(2,2,2-trifluoro-1-methylethyl)-6-phthalazinamine] | 1 | 3.9
8 | CC1CCCN1c1nncc2cc(Nc3ccc(F)cc3F)ccc12 (stereo not shown) [Example 1, N-(2,4-Difluorophenyl)-1-(2-methylpyrrolidin-1-yl)phthalazin-6-amine] | 1.5 | 4.1
9 | Cc1cc(F)ccc1-c1nncc2cc(Nc3ncccc3C)ccc12 [Example 14, 1-(4-fluoro-2-methylphenyl)-N-(3-methyl-2-pyridinyl)-6-phthalazinamine] | 0.7 | 6.6
10 | Cc1cc(S(C)(=O)=O)ccc1-c1nncc2cc(Nc3ccc(F)cc3F)ccc12 [Example 10, N-(2,4-difluorophenyl)-1-(2-methyl-4-(methylsulfonyl)phenyl)-6-phthalazinamine] | 0.3 | 0.5
11 | Cc1cc(F)ccc1-c1nncc2cc(Sc3cccc(F)c3)ccc12 [Example 4, 1-(4-Fluoro-2-methylphenyl)-6-(3-fluorophenylthio)phthalazine] | 1 | 66.9
12 | Cc1cc(S(C)(=O)=O)c(Cl)cc1-c1nncc2cc(Nc3ccc(F)cc3)ccc12 [Example 25, 1-(5-chloro-2-methyl-4-(methylsulfonyl)phenyl)-N-(4-fluorophenyl)-6-phthalazinamine] | 0.7 | 4.5
13 | C[C@@H](Oc1nncc2cc(Nc3ccc(F)cc3F)ccc12)C(F)(F)F [Example 6a, N-(2,4-difluorophenyl)-1-(((1R)-2,2,2-trifluoro-1-methylethyl)oxy)-6-phthalazinamine] | 1.5 | 24
14 | c1ccc(Nc2ccc3c(N4CCOCC4)nncc3c2)cc1 [Example 34, 1-(4-morpholinyl)-N-phenyl-6-phthalazinamine] | 8 | 16
15 | Cc1cc(F)ccc1-c1nncc2cc(Nc3ccc(F)cc3C(F)(F)F)ccc12 [Example 13, 1-(4-fluoro-2-methylphenyl)-N-(4-fluoro-2-(trifluoromethyl)phenyl)-6-phthalazinamine] | 0.5 | 9.9
16 | CC(C)c1nncc2cc(Nc3ccc(F)cc3F)ccc12 [Example 7, N-(2,4-Difluorophenyl)-1-isopropylphthalazin-6-amine] | 0.4 | 2.4
17 | Cc1ccccc1-c1nncc2cc(Nc3ccc(F)cc3F)ccc12 [Example 8, N-(2,4-difluorophenyl)-1-(2-methylphenyl)-6-phthalazinamine] | 0.2 | 1.7
18 | Fc1ccc(Nc2ccc3c(-c4ccccc4Cl)nncc3c2)cc1 [Example 31, 1-(2-chlorophenyl)-N-(4-fluorophenyl)-6-phthalazinamine] | 0.7 | 1.7
19 | Cc1cc(F)ccc1-c1nncc2cc(Nc3ccccc3)ccc12 [Example 27, 1-(4-fluoro-2-methylphenyl)-N-phenyl-6-phthalazinamine] | 0.7 | 2.7
20 | Cc1cc(F)ccc1-c1nncc2cc(Nc3cccc(F)c3)ccc12 [Example 21, 1-(4-fluoro-2-methylphenyl)-N-(3-fluorophenyl)-6-phthalazinamine] | 0.5 | 3.2
21 | Cc1cc(S(C)(=O)=O)c(F)cc1-c1nncc2cc(Nc3ccc(F)cc3F)ccc12 [Example 12, N-(2,4-difluorophenyl)-1-(5-fluoro-2-methyl-4-(methylsulfonyl)phenyl)-6-phthalazinamine] | 0.5 | 0.8
22 | Cc1cc(S(C)(=O)=O)ccc1-c1nncc2cc(Nc3ccc(F)cc3)ccc12 [Example 2, N-(4-Fluorophenyl)-1-(2-methyl-4-(methylsulfonyl)phenyl)phthalazin-6-amine] | 0.3 | 0.8
23 | C[C@H](Oc1nncc2cc(Nc3ccc(F)cc3F)ccc12)C(F)(F)F [Example 6b, N-(2,4-difluorophenyl)-1-(((1S)-2,2,2-trifluoro-1-methylethyl)oxy)-6-phthalazinamine] | 4.6 | 89
24 | Cc1cc(F)ccc1-c1nncc2cc(Nc3ccc(F)cn3)ccc12 [Example 22, 1-(4-fluoro-2-methylphenyl)-N-(5-fluoro-2-pyridinyl)-6-phthalazinamine] | 0.8 | 10.9
25 | N-(4-fluorophenyl)-1-((2,2,2-trifluoro-1-methylethyl)oxy)-6-phthalazinamine [Example 23] | 9.1 | 137
26 | CC1CCCN1c1nncc2cc(Nc3ccccc3)ccc12 (stereo not shown) [Example 17, 1-(2-methyl-1-pyrrolidinyl)-N-phenyl-6-phthalazinamine] | 5 | 6.7
27 | Cc1cc(F)ccc1-c1nncc2cc(Nc3ccc(F)cc3)ccc12 [Example 11, 1-(4-fluoro-2-methylphenyl)-N-(4-fluorophenyl)-6-phthalazinamine] | 0.4 | 1.5
28 | Cc1cc(F)ccc1Nc1ccc2c(-c3ccc(F)cc3C)nncc2c1 [Example 20, N,1-bis(4-fluoro-2-methylphenyl)-6-phthalazinamine] | 0.3 | 1.8
29 | Cc1cc(S(C)(=O)=O)ccc1-c1nncc2cc(Nc3ccc(F)cn3)ccc12 [Example 33, N-(5-fluoro-2-pyridinyl)-1-(2-methyl-4-(methylsulfonyl)phenyl)-6-phthalazinamine] | 0.8 | 20

From patent publication US8497269B2, “Phthalazine compounds as p38 map kinase modulators and methods of use thereof” (Amgen Inc., priority 2008, dated 2013)
